Test results published in patent US20230271954A1 (Gossamer Bio Services, Inc., priority 2020, published 2023).

Key:
[1] = molecular target: DGKα (Homo sapiens, UniProt P23743); assay: DGKα biochemical assay (ADP-Glo); conditions: read-out: DGK α IC50
Outline: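 ADP-Glo kinase assay using OAG/PS (1:2) lipid substrate, sonicated, in HEPES pH 7.0 buffer with MgCl2, CaCl2, DTT, BSA, Triton X-100. Enzyme preincubated with compound 30 min at RT; substrate with ATP (DGKα: 400 μM) added, 45 min RT. Luminescence read; % inhibition vs DMSO and no-enzyme controls.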

[2] = molecular target: T1, DGKζ (Homo sapiens, UniProt Q13574); assay: DGKζ biochemical assay (ADP-Glo); conditions: read-out: DGK ζ IC50
T1 construct: purchased Carna 12-110
T1 sequence (Q13574 1-929 isoform Q13574-4): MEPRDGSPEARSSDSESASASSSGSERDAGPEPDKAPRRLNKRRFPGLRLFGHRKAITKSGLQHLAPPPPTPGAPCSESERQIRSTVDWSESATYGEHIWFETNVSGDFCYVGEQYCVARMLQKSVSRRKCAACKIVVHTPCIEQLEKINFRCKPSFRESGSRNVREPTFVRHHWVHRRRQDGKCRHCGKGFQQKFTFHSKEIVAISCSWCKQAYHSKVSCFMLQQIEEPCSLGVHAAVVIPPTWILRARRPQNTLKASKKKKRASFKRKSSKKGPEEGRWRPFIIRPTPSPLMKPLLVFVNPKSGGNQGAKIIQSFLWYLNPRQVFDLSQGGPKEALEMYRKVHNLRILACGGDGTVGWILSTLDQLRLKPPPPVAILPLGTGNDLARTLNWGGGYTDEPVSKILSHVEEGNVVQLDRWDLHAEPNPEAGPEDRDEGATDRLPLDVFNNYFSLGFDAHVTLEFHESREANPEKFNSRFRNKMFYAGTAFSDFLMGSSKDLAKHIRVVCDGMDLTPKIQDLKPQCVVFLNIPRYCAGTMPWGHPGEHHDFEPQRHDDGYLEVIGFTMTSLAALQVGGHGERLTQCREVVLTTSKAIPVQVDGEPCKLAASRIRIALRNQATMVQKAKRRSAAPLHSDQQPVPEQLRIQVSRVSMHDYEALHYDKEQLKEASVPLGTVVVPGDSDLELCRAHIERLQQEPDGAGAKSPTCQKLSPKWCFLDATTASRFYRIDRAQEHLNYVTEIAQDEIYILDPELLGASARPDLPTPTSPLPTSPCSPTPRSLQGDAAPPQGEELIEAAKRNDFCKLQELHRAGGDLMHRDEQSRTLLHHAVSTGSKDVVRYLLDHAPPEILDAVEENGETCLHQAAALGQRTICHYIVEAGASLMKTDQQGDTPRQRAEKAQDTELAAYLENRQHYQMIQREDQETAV

Sequence of DGKα (P23743 whole entry): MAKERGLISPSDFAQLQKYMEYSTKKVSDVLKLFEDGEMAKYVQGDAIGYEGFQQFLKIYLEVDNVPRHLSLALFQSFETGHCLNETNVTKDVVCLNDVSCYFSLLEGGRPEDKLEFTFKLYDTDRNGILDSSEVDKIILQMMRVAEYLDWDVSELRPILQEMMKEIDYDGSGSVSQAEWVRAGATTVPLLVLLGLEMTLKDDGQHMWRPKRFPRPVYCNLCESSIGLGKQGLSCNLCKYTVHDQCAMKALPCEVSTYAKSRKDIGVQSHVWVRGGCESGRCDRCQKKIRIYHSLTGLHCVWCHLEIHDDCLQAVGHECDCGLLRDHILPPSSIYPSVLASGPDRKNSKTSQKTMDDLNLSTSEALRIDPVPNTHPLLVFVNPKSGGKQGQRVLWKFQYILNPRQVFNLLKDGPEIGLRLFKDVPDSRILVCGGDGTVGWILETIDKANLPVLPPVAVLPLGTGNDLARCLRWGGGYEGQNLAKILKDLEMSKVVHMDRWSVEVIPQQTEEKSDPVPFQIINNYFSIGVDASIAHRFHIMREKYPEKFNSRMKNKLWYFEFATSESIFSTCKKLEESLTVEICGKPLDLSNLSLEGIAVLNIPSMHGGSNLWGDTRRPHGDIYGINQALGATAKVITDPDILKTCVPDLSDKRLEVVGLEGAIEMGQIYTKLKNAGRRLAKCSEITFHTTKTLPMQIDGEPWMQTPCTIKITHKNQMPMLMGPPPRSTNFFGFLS

Structure (SMILES) | IC50 [1] | IC50 [2]
CN1C(=O)COc2ccc(N(CC3CC3)[C@H]3CC[C@@H](N(C)c4cc(=O)n(C)c5ccc(C#N)nc45)CC3)cc21 [Example 197, cis-8-((4-((cyclopropylmethyl)(4-methyl-3-oxo-3,4-dihydro-2H-benzo[b][1,4]oxazin-6-yl)amino)cyclohexyl)(methyl)amino)-5-methyl-6-oxo-5,6-dihydro-1,5-naphthyridine-2-carbonitrile] | 0.1 to 1 µM | ≥ 1 µM
CN1C(=O)COc2ccc(N(CC3CC3)[C@H]3CC[C@@H](N(C)c4c(C#N)c(=O)n(C)c5ccc(C#N)nc45)CC3)cc21 [Example 198, cis-8-((4-((cyclopropylmethyl)(4-methyl-3-oxo-3,4-dihydro-2H-benzo[b][1,4]oxazin-6-yl)amino)cyclohexyl)(methyl)amino)-5-methyl-6-oxo-5,6-dihydro-1,5-naphthyridine-2,7-dicarbonitrile] | ≥ 1 µM | ≥ 1 µM
Cn1c(=O)c(C#N)c(N(C)[C@H]2CC[C@@H](N(CC3CC3)c3cccc4c3oc(=O)n4C)CC2)c2nc(C#N)ccc21 [Example 200, cis-8-((-4-((cyclopropylmethyl)(3-methyl-2-oxo-2,3-dihydrobenzo[d]oxazol-7-yl)amino)cyclohexyl) (methyl)amino)-5-methyl-6-oxo-5,6-dihydro-1,5-naphthyridine-2,7-dicarbonitrile] | ≥ 1 µM | ≥ 1 µM
Cn1c(=O)c(C#N)c(N(C)[C@H]2CC[C@@H](N(C[C@H]3C[C@H](O)C3)c3ccc(F)cc3)CC2)c2nc(C#N)ccc21 [Example 201, cis-8-((-4-((4-fluorophenyl)((trans-3-hydroxycyclobutyl)methyl)amino)cyclohexyl) (methyl)amino)-5-methyl-6-oxo-5,6-dihydro-1,5-naphthyridine-2,7-dicarbonitrile] | < 0.01 µM | ≥ 1 µM
Cn1c(=O)c(C#N)c(N(C)[C@H]2CC[C@@H](N(CC3CC3)c3ccc4c(c3)C(=O)NC4)CC2)c2nc(C#N)ccc21 [Example 202, cis-8-((-4-((cyclopropylmethyl)(3-oxoisoindolin-5-yl)amino)cyclohexyl)(methyl)amino)-5-methyl-6-oxo-5,6-dihydro-1,5-naphthyridine-2,7-dicarbonitrile] | ≥ 1 µM | ≥ 1 µM
Cn1c(=O)c(F)c(N(C)[C@H]2CC[C@@H](N(CC3COCCO3)c3ccc(F)cc3)CC2)c2nc(C#N)ccc21 (stereo partly drawn) [Example 203, cis-8-((-4-(((1,4-dioxan-2-yl)methyl)(4-fluorophenyl)amino)cyclohexyl)(methyl)amino)-7-fluoro-5-methyl-6-oxo-5,6-dihydro-1,5-naphthyridine-2-carbonitrile] | < 0.01 µM | 0.1 to 1 µM
CN1Cc2ccc(N(CC3CC3)[C@H]3CC[C@@H](N(C)c4c(C#N)c(=O)n(C)c5ccc(C#N)nc45)CC3)cc2C1=O [Example 204, cis-8-((-4-((cyclopropylmethyl)(2-methyl-3-oxoisoindolin-5-yl)amino)cyclohexyl)(methyl)amino)-5-methyl-6-oxo-5,6-dihydro-1,5-naphthyridine-2,7-dicarbonitrile] | ≥ 1 µM | ≥ 1 µM
Cn1c(=O)c(F)c(N(C)[C@H]2CC[C@@H](N(CC3COCCO3)c3ccc(F)cc3F)CC2)c2nc(C#N)ccc21 (stereo partly drawn) [Example 205, cis-8-((-4-(((1,4-dioxan-2-yl)methyl)(2,4-difluorophenyl)amino)cyclohexyl)(methyl)amino)-7-fluoro-5-methyl-6-oxo-5,6-dihydro-1,5-naphthyridine-2-carbonitrile] | 0.01 to 0.1 µM | 0.01 to 0.1 µM
Cn1c(=O)c(C#N)c(N(C)[C@H]2CC[C@@H](N(C(=O)C3CC3)c3ccc(F)cc3)CC2)c2nc(C#N)ccc21 [Example 206, cis-N-(4-((3,6-dicyano-1-methyl-2-oxo-1,2-dihydro-1,5-naphthyridin-4-yl)(methyl)amino)cyclohexyl)-N-(4-fluorophenyl)cyclopropanecarboxamide] | 0.01 to 0.1 µM | ≥ 1 µM
Cn1c(=O)oc2ccc(N(CC3CC3)[C@H]3CC[C@@H](N(C)c4c(C#N)c(=O)n(C)c5ccc(C#N)nc45)CC3)cc21 [Example 207, cis-8-((-4-((cyclopropylmethyl)(3-methyl-2-oxo-2,3-dihydrobenzo[d]oxazol-5-yl)amino)cyclohexyl) (methyl)amino)-5-methyl-6-oxo-5,6-dihydro-1,5-naphthyridine-2,7-dicarbonitrile] | ≥ 1 µM | ≥ 1 µM
Cn1c(=O)cc(N(C)[C@H]2CC[C@@H](N(C(=O)C3CC3)c3ccc(F)cc3)CC2)c2nc(C#N)ccc21 [Example 208, cis-N-(4-((6-cyano-1-methyl-2-oxo-1,2-dihydro-1,5-naphthyridin-4-yl)(methyl)amino)cyclohexyl)-N-(4-fluorophenyl)cyclopropanecarboxamide] | 0.1 to 1 µM | ≥ 1 µM
CC(C)C(=O)N(c1ccc(F)cc1)[C@H]1CC[C@@H](N(C)c2c(C#N)c(=O)n(C)c3ccc(C#N)nc23)CC1 [Example 209, cis-N-(4-((3,6-dicyano-1-methyl-2-oxo-1,2-dihydro-1,5-naphthyridin-4-yl)(methyl)amino)cyclohexyl)-N-(4-fluorophenyl)isobutyramide] | 0.1 to 1 µM | ≥ 1 µM
Cn1c(=O)cc(N(C)[C@H]2CC[C@@H](N(CC3CCS(=O)(=O)CC3)c3ccc(F)cc3)CC2)c2nc(C#N)ccc21 [Example 211, cis-8-((4-(((1,1-dioxidotetrahydro-2H-thiopyran-4-yl)methyl)(4-fluorophenyl)amino)cyclohexyl)(methyl)amino)-5-methyl-6-oxo-5,6-dihydro-1,5-naphthyridine-2-carbonitrile] | 0.01 to 0.1 µM | ≥ 1 µM
Cn1c(=O)c(C#N)c(N(C)[C@H]2CC[C@H](N(CC3CC3)c3cc4c(cn3)OCO4)CC2)c2nc(C#N)ccc21 [Example 212, trans-8-((-4-([1,3]dioxolo[4,5-c]pyridin-6-yl(cyclopropylmethyl)amino)cyclohexyl)(methyl)amino)-5-methyl-6-oxo-5,6-dihydro-1,5-naphthyridine-2,7-dicarbonitrile] | ≥ 1 µM | ≥ 1 µM
Cn1c(=O)c(C#N)c(N(C)[C@H]2CC[C@@H](N(CC3CC3)c3cc4c(cn3)OCO4)CC2)c2nc(C#N)ccc21 [Example 213, cis-8-((-4-([1,3]dioxolo[4,5-c]pyridin-6-yl(cyclopropylmethyl)amino)cyclohexyl)(methyl)amino)-5-methyl-6-oxo-5,6-dihydro-1,5-naphthyridine-2,7-dicarbonitrile] | 0.01 to 0.1 µM | 0.1 to 1 µM
Cn1c(=O)cc(N(C)[C@H]2CC[C@@H](N(Cc3ccccc3)CC3CC3)CC2)c2nc(C#N)ccc21 [Example 214, cis-8-((-4-(benzyl(cyclopropylmethyl)amino)cyclohexyl)(methyl)amino)-5-methyl-6-oxo-5,6-dihydro-1,5-naphthyridine-2-carbonitrile] | ≥ 1 µM | ≥ 1 µM
